Test results reported in patent US20010044151A1, “Ligands for modulating the expression of exogenous genes via an ecdysone receptor complex” (priority 1998, published 2001).

target: T1, ecdysteroid receptor complex in Plodia interpunctella (IAL-PID2) nuclear extract (Plodia interpunctella, UniProt Q6RVD3); test: Competitive 3H-ponasterone A binding assay, Plodia nuclear ecdysone receptor extract; conditions: 3H-ponasterone A displacement
T1 sequence (Q6RVD3 1-541): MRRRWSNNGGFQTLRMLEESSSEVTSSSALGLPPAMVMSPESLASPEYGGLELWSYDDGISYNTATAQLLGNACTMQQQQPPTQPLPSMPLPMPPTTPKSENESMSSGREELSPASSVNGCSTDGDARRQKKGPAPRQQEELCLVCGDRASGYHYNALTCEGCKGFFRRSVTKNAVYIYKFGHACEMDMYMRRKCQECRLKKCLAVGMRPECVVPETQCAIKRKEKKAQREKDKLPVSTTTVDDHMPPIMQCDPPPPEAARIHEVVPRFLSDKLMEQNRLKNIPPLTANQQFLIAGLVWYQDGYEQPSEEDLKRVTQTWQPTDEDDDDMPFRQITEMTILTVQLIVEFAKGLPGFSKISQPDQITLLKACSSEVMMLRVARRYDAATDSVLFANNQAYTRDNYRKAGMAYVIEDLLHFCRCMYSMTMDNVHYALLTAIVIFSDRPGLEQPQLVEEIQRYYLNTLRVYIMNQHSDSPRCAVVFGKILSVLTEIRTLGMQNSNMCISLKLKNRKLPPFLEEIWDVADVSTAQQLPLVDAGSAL
T1 sequence (Q6IVK1 1-415 partner): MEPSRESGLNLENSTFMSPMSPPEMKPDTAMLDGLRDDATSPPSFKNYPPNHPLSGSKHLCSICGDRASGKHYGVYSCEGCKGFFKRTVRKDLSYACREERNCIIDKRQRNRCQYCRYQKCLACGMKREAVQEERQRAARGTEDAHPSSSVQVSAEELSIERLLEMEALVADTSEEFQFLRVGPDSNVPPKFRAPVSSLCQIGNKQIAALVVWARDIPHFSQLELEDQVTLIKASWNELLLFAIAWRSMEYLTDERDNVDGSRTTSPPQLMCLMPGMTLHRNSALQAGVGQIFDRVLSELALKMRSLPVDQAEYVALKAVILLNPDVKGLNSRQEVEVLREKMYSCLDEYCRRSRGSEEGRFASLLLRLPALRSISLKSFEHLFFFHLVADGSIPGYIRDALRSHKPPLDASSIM
Procedure: The cell line IAL-PID2, derived from imaginal wing discs of the lepidopteran Plodia interpunctella was obtained from H. Oberlander and maintained as described (Lynn, E. E. and Oberlander, H., (1983), J. Insect Physiology, 29, 591-96). A 300 ml stationary phase culture of P. interpunctella cells was centrifuged at 700×g for 10 mm at room temperature to pellet the cells. The supernatant was aspirated and the cellular pellet resuspended in 35 ml TMT (TM buffer with 0.1% Triton X-100). The suspension was homogenized with twenty up and down strokes of a Dounce homogenizer on ice. Homogenate was incubated on ice for 10 minutes and then centrifuged for 15 min at 900×g. The pellet was resuspenced in 15 ml TM buffer and centrifuged at 2,300×g. This pellet was extracted in TMK buffer (TM buffer with 800 mM KCl) by using a glass rod to crush the pellet until a gelatinous slurry was formed and incubated on ice for 15 minutes. The extract was centrifuged at 100,000×g in a swinging bucket rotor for 60 minutes. The supernatant, which constituted the nuclear extract, was desalted on a 10 DG desalting column (Bio-Rad, 732-2010) equilibrated with T-buffer. The total protein concentration in the nuclear extract was adjusted to 5 mg per ml with T-buffer containing 1 mM DTT.
^3H ponasterone A, a potent phytoecdysteroid, (66,000 dpm; specific activity 170 Ci/mmole; NEN Life Science Products, Boston, Mass.) was mixed with 100 μl Kc cytosolic or Plodia nuclear ecdysone receptor extracts in […] glass test tubes in the absence or presence of 10 μM unlabelled 20-hydroxyecdysone (20E) to obtain an estimate of total or non-specific respectively, binding of tritiated ponasterone A. The tubes were vortexed and incubated overnight at 4° C. for Kc cytosolic extracts or 1.5 hours for Plodia nuclear extracts for binding reactions to reach equilibrium. At the end of equilibrium binding times, the bound tritiated ponasterone A was separated from the unbound by addition of ice-cold 600 μl or 300 μl dextran-coated charcoal solution (500 mg of Sigma HCL-washed activated charcoal, 50 mg Pharmacia Dextran T70, 50 ml T-buffer) to Kc or Plodia extracts, respectively. The tubes were vortexed briefly and centrifuged at 7,000×g to pellet the charcoal. The supernatant, 600 μl or 300 μl for Kc or Plodia extract reactions, respectively, containing tritiated ponasterone A bound to proteins, was aspirated into liquid scintillation vials containing 5 ml scintillation cocktail (ReadySafe®, Beckmann) each The mixture was vortexed and the amount of total or non-specifically bound radioactivity measured in a Beckmann LS500 liquid scinitllation counter with a 60% counting efficiency for tritium.
The concentrations of competitors that inhibited 50% of tritiated ponasterone A binding (IC50) was determined by incubating Kc or Plodia nuclear extracts or extracts of bacteria producing CfEcR(CDEF)-GST and CfUSP-GST fusions proteins with ^3H-ponasterone A (66,000 dpm per reaction) in the presence of a range of concentrations (0.1 nM to 10 μM) of test compounds. In the case of binding reactions using bacterial fusion proteins, 20 or one μl extract of bacteria producing CfEcR(CDEF)-GST or CfUSP-GST fusion proteins, respectively, were included per binding reaction. The assay conditions and determination of total and non-specific binding was as described above. The volume of competitor in solvent, like that for 20E or solvent alone, was kept at 1% of total reaction volume by using a 100 fold concentrated stock solution (i.e. a 100 fold dilution of stock solutions). The remainder of the assay was as described above. Each reaction was carried out in duplicate per concentration per test compound. Specific binding of ^3H-ponasterone A was determined by subtracting non-specific binding (that obtained in the presence of 10 μM 20E) from total (no competitor) or competed radioactivity bound. […]

Question: With CCc1c(OC)cccc1C(=O)NN(C(=O)c1cc(C)cc(C)c1)C(C)(C)C [Ligand 5] as the compound, how does the “Plodia log(1/IC50)” value read?
Answer: 9.49

Question: For Cc1cc(C)cc(C(=O)N(NC(=O)c2ccc3c(c2C)OCCO3)C(C)(C)C)c1 [Ligand 2], which “Plodia log(1/IC50)” value is on record?
Answer: 9.14

Question: CCc1c(OC)cccc1C(=O)NN(C(=O)c1cc(F)cc(F)c1)C(C)(C)C [Ligand 4] was tested. Which “Plodia log(1/IC50)” value did it give?
Answer: 8.51

Question: Which “Plodia log(1/IC50)” value does the source give for COc1cccc(C(=O)NN(C(=O)c2cc(C)cc(C)c2)C(C)(C)C)c1C [Ligand 3] here?
Answer: 9.04

Question: With CCc1c(OC)cccc1C(=O)NN(C(=O)c1cccc(OC)c1)C(C)(C)C [Ligand 1] as the compound, how does the “Plodia log(1/IC50)” value read?
Answer: 8.52

Question: Which “Plodia log(1/IC50)” value does the source give for CCOc1cccc(C(=O)NN(C(=O)c2cc(C)cc(C)c2)C(C)(C)C)c1CC [Ligand 12] here?
Answer: 9.63

Question: With CCc1c(OC)cccc1C(=O)NN(C(=O)c1cc(Cl)cc(Cl)c1)C(C)(C)C [Ligand 13] as the compound, how does the “Plodia log(1/IC50)” value read?
Answer: 9.06
